The source of these data is US10118925B2, “Imidazo[4,5-c] ring compounds containing substituted guanidine groups” (3M INNOVATIVE PROPERTIES COMPANY, priority 2015, dated 2018).

For series [1], the system named is Human peripheral blood mononuclear cells (PBMC). The series is described as follows: Cytokine induction in human cells (PBMC): IFN-gamma by multiplex bead assay. The format is cell-based. Particulars: 21-24 hrs, lowest concentration inducing cytokine at least 2× negative control, tested 0.0001-10 micromolar. The protocol: (§1) Whole blood was obtained from healthy human donors and collected by venipuncture into vacutainer tubes or syringes containing EDTA. Human peripheral blood mononuclear cells (PBMC) were purified from the whole blood by density gradient centrifugation. Histopaque 1077 (15 mL, Sigma, St. Louis, Mo.) was transferred to 6×50 mL sterile polypropylene conical tubes. The Histopaque was overlayed with 15-25 mL of blood diluted 1:2 in Hank's Balanced Salts Solution (HBSS) (Gibco, Life Technology, Grand Island N.Y.). The tubes were then centrifuged at 1370 rpm for 30 minutes at 20° C., with no brake (400×g, GH 3.8 A Rotor).
(§2) The interface (buffy coat) containing the PBMC was collected and placed in a new sterile 50 mL conical polypropylene centrifuge tube. The PBMC were mixed with an equal volume of HBSS (about 20 mL from the interface and about 20 mL of HBSS), and then centrifuged at 1090 rpm, 10 min, 20° C., with brake (270×g, GH 3.8 A Rotor). After completing centrifugation, the cells were resuspended in 2-3 mL ACK Red blood cell lysis buffer (ammonium chloride potassium solution, Gibco, Life Technology) and incubated for 2-5 minutes at 20° C. […]
(§3) The number of viable cells were determined by counting with a Miltenyi FACS instrument (Miltenyi Biotec Inc., San Diego, Calif.) or by using a hemacytometer. […] Ten microliters of the diluted cells were then applied to the hemacytometer, and the number of viable PBMC were determined by microscopy. […]
(§4) IFN-alpha cytokine levels (pg/mL) were measured by ELISA (human IFN-α, pan specific, Mabtech, Cinncinnati, Ohio), IFN-gamma, TNF-alpha, and IP-10 cytokine levels (pg/mL) were measured by multiplex bead assay (magnetic beads, R & D Systems Minneapolis, Minn.) according to the manufacturer's instructions.
(§5) Specifically, the minimum effective concentration of each compound (micromolar) was determined as the lowest concentration of the compound that induced a measured cytokine response at a level ([…]) that was at least 2× greater than that observed with the negative control wells.

Series [2] has the same test system. Description: Cytokine induction in human cells (PBMC): IP-10 by multiplex bead assay. Particulars: 21-24 hrs, lowest concentration inducing cytokine at least 2× negative control, tested 0.0001-10 micromolar. It counts as cell-based. The protocol:
as §1, §2, §3, §4, §5

Series [3] has the same test system. The series is described as follows: Cytokine induction in human cells (PBMC): IFN-alpha by ELISA. To be noted: 21-24 hrs, lowest concentration inducing cytokine at least 2× negative control, tested 0.0001-10 micromolar. The format is cell-based. The protocol: as §1, §2, §3, §4, §5
(ELISA stands for enzyme-linked immunosorbent assay.)

The test system is the same in series [4]. Description: Cytokine induction in human cells (PBMC): TNF-alpha by multiplex bead assay. The format is cell-based. Particulars: 21-24 hrs, lowest concentration inducing cytokine at least 2× negative control, tested 0.0001-10 micromolar. Here is the method:
as §1, §2, §3, §4, §5

Structures can show the parent of a compound that is named as a salt.

Regarding `CCCCc1nc2c(N)nc3ccccc3c2n1CCCCNC(=N)NC(C)C` (as salt: hydrochloride) [Example 1, 1-[4-(4-amino-2-butyl-imidazo[4,5-c]quinolin-1-yl)butyl]-3-isopropyl-guanidine dihydrochloride], the melting point (commonly the temperature of the solid-liquid transition) is 210 to 216 °C.
Still for that read-out and setting: the result for `CCCCc1nc2c(N)nc3ccccc3c2n1CCCCN/C(=N/C(C)C)NC(C)C` (as salt: hydrochloride) [Example 2, 1-[4-(4-amino-2-butyl-imidazo[4,5-c]quinolin-1-yl)butyl]-2,3-diisopropyl-guanidine Dihydrochloride] reads 172 to 174 °C.
Regarding `CCCCc1nc2c(N)nc3ccccc3c2n1CCCCNC(=N)NC(C)C` [Example 1, 1-[4-(4-amino-2-butyl-imidazo[4,5-c]quinolin-1-yl)butyl]-3-isopropyl-guanidine dihydrochloride], the “MEC to Induce Cytokine IFN-gamma” value in series [1] was 0.1 µM. Further, the “MEC to Induce Cytokine IP-10” value in series [2] is 0.001 µM. Besides, in series [3], the “MEC to Induce Cytokine IFN-alpha” value amounted to 0.01 µM. Moreover, the “MEC to Induce Cytokine TNF-alpha” value in series [4] stood at 0.1 µM.
As to `CCCCc1nc2c(N)nc3ccccc3c2n1CCCCN/C(=N/C(C)C)NC(C)C` [Example 2, 1-[4-(4-amino-2-butyl-imidazo[4,5-c]quinolin-1-yl)butyl]-2,3-diisopropyl-guanidine Dihydrochloride], the “MEC to Induce Cytokine IFN-gamma” value in series [1] came out at 1 µM. The “MEC to Induce Cytokine IP-10” value in series [2] turned out to be 0.1 µM. The “MEC to Induce Cytokine IFN-alpha” value in series [3] was found to be 0.1 µM. In addition, the “MEC to Induce Cytokine TNF-alpha” value in series [4] came out at 10 µM.
Take `CC(C)Cn1cnc2c(N)nc3ccccc3c21` [imiquimod, reference compound]: the “MEC to Induce Cytokine IFN-gamma” value in series [1] amounted to 10 µM. Besides, the “MEC to Induce Cytokine IP-10” value in series [2] is 10 µM. The “MEC to Induce Cytokine IFN-alpha” value in series [3] was found to be 10 µM. Moreover, the “MEC to Induce Cytokine TNF-alpha” value in series [4] is 10 µM.
